A short description of series [1]: Thermodynamic aqueous solubility, shake-flask method and HPLC-UV. It is filed as physicochemical. To be noted: phosphate-buffered saline, aqueous buffer, thermodynamic from solid, PBS pH 7.4, 25°C, up to 72 h, HPLC-UV, logS of molar solubility [M]. The protocol: (§1) Phosphate-buffered saline pH 7.4 was prepared according to the European Pharmacopeia 10.4 by dissolving 2.38 g sodium monohydrogen phosphate dodecahydrate, 0.19 g potassium dihydrogen phosphate and 8.0 g sodium chloride in demineralised water (to a total volume of 1000 mL). The pH was adjusted to a value of 7.4 with hydrochloric acid. The buffer was filtered through a 0.45 μm membrane filter (Chromafil® Xtra PES-45/25) before use.
The thermodynamic aqueous solubility was determined by a miniaturised shake-flask method. […] A negative control with the buffer (400 μL) was incubated for every time point and measured likewise. After incubation for 24 h, 48 h and 72 h, the vials were checked for undissolved compound; then the filter plunger was punched into the vial for filtration. […] The calibration curve was obtained from at least three dilutions and five measuring points from a DMSO stock solution of the respective compound.

Series [2] is described as follows: Kinetic aqueous solubility by nephelometry. The conditions noted are these: phosphate-buffered saline, aqueous buffer, kinetic from dmso stock, PBS pH 7.4, 1% DMSO, 25°C, logS = decadic logarithm of molar solubility [M]. In kind it is physicochemical. The protocol: as §1
The kinetic aqueous solubility was determined by nephelometry. The measurements were performed on the NEPHELOstar Plus, with accompanying software Omega 5.11 and MARS 3.20 (BMG LABTECH, Ortenberg, Germany). Generally, 2 dilution series of 1–2 weighed portions of each substance were measured. First, stock solutions of the compounds were prepared in DMSO. A series of dilutions in DMSO were prepared from one stock solution to obtain at least 3 concentrations below and 3 concentrations above the precipitation point in the measured series. The specific concentrations were usually measured as duplicates.
The 96-well plate (Corning UV transparent flat-bottom 96-well plate, Corning Incorporated, Kennenbunk, ME, USA) was inspected for contamination and scratches and measured without samples prior to the solubility measurement of the compounds. 198 μL of phosphate-buffered saline pH 7.4 was placed in a 96 well plate for each well to be measured. 2 μL of a DMSO solution was added and immediately mixed by moving the pipette plunger. This solution either contained no substance—and served as a blank for the measurement (3 wells)—or the respective DMSO dilution of the substance (2–4 wells). The concentration of the solvent DMSO in each measured solution was 1%. The concentration of the compound corresponds to a 1:100 dilution compared to the respective DMSO dilution. The well plate bottom was cleaned with a lint-free cloth and compressed air and inspected for impurities before measurement. After shaking at 500 rpm for 10 s (double orbital), the measurement was carried out in the nephelometer with the laser intensity set to 80% and beam focus of 2.5 mm at a temperature of 25°C.
The obtained measuring points, relative nephelometric units (RNU) per compound concentration, were used to model two straight lines: one straight line with constant low readings and slope → 0 characterises the concentration range where no precipitation has taken place yet; The other straight line has a steep slope and increase of the RNU per concentration and characterises the concentrations at which precipitation takes place in the respective sample vessels.
The evaluation was carried out by calculating the two straight lines and their point of intersection. Outliers and values in a saturation range for the kick-off curve (usually >800 kRNU) were not used to create the straight lines and are listed separately in the evaluation file. […] The x-value of the intersection of the two straight lines represents the kinetic solubility. The results of two dilution series are additionally indicated as range (in brackets). For measurements of 3 or more series, a mean value with standard deviation is provided. The logS value describes the decadic logarithm of the molar solubility: logS (molar solubility [M]).

The target in series [3] is T1, trypanothione synthetase of L. infantum (LiTryS) (Leishmania infantum, UniProt A4I2Z3). Description: TryS activity screening assay on recombinant LiTryS. The conditions noted are these: read-out: LiTryS activity [% at 30 μM]. It is filed as biochemical. The gist of the method: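 N-His-tagged TryS from E. coli, purified by IMAC and SEC; end-point reaction with 150 μM ATP, 2 mM Spd, GSH 0.05 mM (TbTryS) or 0.25 mM (LiTryS), enzyme 3*10^−5 (TbTryS) or 2*10^−5 (LiTryS) μmol*min^-1*mL^-1. Stopped after 15 min with BIOMOL GREEN; A650 activity relative to blank-corrected DMSO control.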

Series [4] deals with Crithidia fasciculata TryS (CfTryS). The arrangement: method as in ref 24–26 = [24]; 24 Stuhlmann F, Jäger T, Flohé L, Schinzer D, inventors. N 5 -substituted benzo[2,3]azepino[4,5- b ]indol-6-ones for treating tropical diseases. European Patent Office patent EP 1 757 607 A1. 2007 Feb || [25]; PMID 27070550; doi:10.1371/journal.pntd.0004617; 25 Benítez D , Medeiros A , Fiestas L , Panozzo-Zenere EA , Maiwald F , Prousis KC , et al . Identification of novel chemical scaffolds inhibiting trypanothione synthetase from pathogenic trypanosomat || [26]; PMID 32588679; doi:10.1080/14756366.2020.1780227; 26 Medeiros A , Benítez D , Korn RS , Ferreira VC , Barrera E , Carrión F , et al . Mechanistic and biological characterisation of novel N 5 -substituted paullones targeting the biosynthesis of trypan. To be noted: cited from earlier work.

Series [5] deals with bloodstream form of T. b. brucei strain 427. The arrangement: method as in PMID 27070550. The conditions noted are these: displayed for comparison, read-out: T. b. brucei (BS) [EC50; cited from earlier work.
The test system of a further series is LiTryS. The arrangement: method as in ref 25, 26 = [25]; PMID 27070550; doi:10.1371/journal.pntd.0004617; 25 Benítez D , Medeiros A , Fiestas L , Panozzo-Zenere EA , Maiwald F , Prousis KC , et al . Identification of novel chemical scaffolds inhibiting trypanothione synthetase from pathogenic trypanosomat || [26]; PMID 32588679; doi:10.1080/14756366.2020.1780227; 26 Medeiros A , Benítez D , Korn RS , Ferreira VC , Barrera E , Carrión F , et al . Mechanistic and biological characterisation of novel N 5 -substituted paullones targeting the biosynthesis of trypan. To be noted: versus substrates Spd, Gsp, ATP, GSH; cited from earlier work.

The subject of series [6] is trypanothione synthetase of T. b. brucei (TbTryS). The arrangement: method as in PMID 27070550. To be noted: cited from earlier work.
For series [7], the target named is T1, trypanothione synthetase of L. infantum (LiTryS). The conditions noted are these: Fig 3, known paullones; cited from earlier work.
In series [8] the test system is L. infantum amastigotes (intracellular, in J774.A1 macrophages). Description: Viability assay for L. infantum amastigotes. To be noted: Leishmania infantum, J774.A1, 24 h, read-out: L. infantum amastigote viability [% at 20 μM]. It is filed as cell-based. The gist of the method: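 Luciferase-expressing L. infantum metacyclic promastigotes (MHOM/MA/67/ITMAP263) infected J774.A1 murine macrophages at 1:10 for 24 h at 37 °C, 5% CO2. After compound treatment, a further 24 h incubation followed. Percent amastigote viability, in triplicate, was normalised to host-cell density by a propidium iodide correction factor.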

For the next series, the system named is TryS. Also on record: method as in Torrie et al. 18. To be noted: ref Torrie et al. 18; cited from earlier work.

T1 sequence (A4I2Z3 entry or part of it): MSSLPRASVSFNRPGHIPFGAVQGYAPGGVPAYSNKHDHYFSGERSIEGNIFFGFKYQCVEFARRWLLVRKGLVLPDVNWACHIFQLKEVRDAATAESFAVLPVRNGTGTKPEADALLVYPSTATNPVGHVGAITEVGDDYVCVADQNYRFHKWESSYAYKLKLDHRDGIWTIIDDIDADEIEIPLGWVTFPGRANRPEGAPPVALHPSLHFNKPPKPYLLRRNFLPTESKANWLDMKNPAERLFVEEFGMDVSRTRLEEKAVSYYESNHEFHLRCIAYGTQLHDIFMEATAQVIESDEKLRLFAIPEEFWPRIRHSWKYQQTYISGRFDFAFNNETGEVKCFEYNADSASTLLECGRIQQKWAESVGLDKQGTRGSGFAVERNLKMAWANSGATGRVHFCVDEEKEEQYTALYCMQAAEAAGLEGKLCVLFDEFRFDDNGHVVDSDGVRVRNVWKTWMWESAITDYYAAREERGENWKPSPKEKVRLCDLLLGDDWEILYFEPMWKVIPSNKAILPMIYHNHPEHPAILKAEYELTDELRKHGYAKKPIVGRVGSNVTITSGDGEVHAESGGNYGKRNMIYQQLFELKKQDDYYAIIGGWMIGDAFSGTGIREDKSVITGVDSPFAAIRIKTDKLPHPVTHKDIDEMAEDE

`CON=C1CCC(=O)N(CC(=O)N2CCCC2)c2ccccc21` (mixture of isomers) [5c, (E/Z)-5-(Methoxyimino)-1-[2-oxo-2-(pyrrolidin-1-yl)ethyl]-1,3,4,5-tetrahydro-2H-benzo[b]azepin-2-one] gave a solubility (thermodynamic) at 72 h in series [1] of 0.0263 M. The molecule also showed a solubility (kinetic) at 10 s in series [2] greater than 0.00398 M. Also, the activity at 30 µM in series [3] stood at 86.9 ± 3.6%.

`CNCCNC(=O)CN1C(=O)Cc2c([nH]c3ccc(Br)cc23)-c2ccccc21` [1b]: the “CfTryS inhibition at 10 μM compound concentration” value in series [4] was 92%.

With `CNCCNC(=O)CN1C(=O)Cc2c([nH]c3ccc(Br)cc23)-c2ccc(Cl)cc21` [1c], the EC50 in series [5] was 4.3 ± 0.7 µM. In addition, the “inhibition mechanism on LiTryS” value in the series on LiTryS was “competitive to Spd and Gsp, and uncompetitive to ATP and GSH”. Also, the “TbTryS activity [% at 30 μM]” value in series [6] (30 μM, displayed for comparison) is on record as 41.0 ± 6.0%. The IC50 in [6] (used as inhibition control, read-out: concentration that inhibited 50% TryS activity (TbTryS)) was 30 µM.

On to `NCCNC(=O)CN1C(=O)Cc2c([nH]c3ccc(Br)cc23)-c2ccc(Cl)cc21` [1d], for which the IC50 in series [7] is 0.3 µM.

In the case of `O=C(CN1C(=O)CCCc2ccccc21)N1CCCC1` [2j, 1-[2-Oxo-2-(pyrrolidin-1-yl)ethyl]-1,3,4,5-tetrahydro-2H-benzo[b]-azepin-2-one], the thermodynamic solubility at 72 h in series [1] was greater than 0.049 M. Moreover, in [2], the kinetic solubility at 10 s is greater than 0.00398 M. Also, in [3], the activity at 30 µM was 100 ± 6.6%.

`Cl.Cl.O=C(CN1C(=O)CCCc2ccccc21)NCCN1CCNCC1` [2o, 2-(2-Oxo-2,3,4,5-tetrahydro-1H-benzo[b]azepin-1-yl)-N-[2-(piperazin-1-yl)ethyl]acetamide dihydrochloride]: the solubility (thermodynamic) at 72 h in series [1] is greater than 0.248 M. The solubility (kinetic) at 10 s in [2] is greater than 0.001 M. Besides, the activity at 30 µM in series [3] is 98.8 ± 18.7%. Also, the viability at 20 µM in series [8] turned out to be 98.4 ± 11.8%.

On to `CC1(C)CCc2ccccc2N(CC(=O)NCCN2CCNCC2)C1=O.Cl.Cl` [3d, 2-(3,3-Dimethyl-2-oxo-2,3,4,5-tetrahydro-1H-benzo[b]azepin-1-yl)-N-[2-(piperazin-1-yl)ethyl]acetamide dihydrochloride], for which the solubility (thermodynamic) at 72 h in series [1] is greater than 0.114 M. In series [2], this molecule returned a solubility (kinetic) at 10 s greater than 0.002 M. The activity at 30 µM in series [3] was 100 ± 5.1%. The viability at 20 µM in series [8] turned out to be 78.1 ± 14.4%.

As for `Cl.Cl.O=C(CN1C(=O)Cc2ccccc2-c2ccccc21)NCCN1CCNCC1` [4d, 2-(6-Oxo-6,7-dihydro-5H-dibenzo[b,d]azepin-5-yl)-N-[2-(piperazin-1-yl)ethyl]acetamide dihydrochloride], the solubility (thermodynamic) at 72 h in series [1] was greater than 0.0562 M. The same molecule yielded a solubility (kinetic) at 10 s in series [2] greater than 0.0002 M. For the same molecule, the activity at 30 µM in series [3] worked out at 99.5 ± 3.1%. Also, in series [8], the viability at 20 µM stood at 89.5 ± 2.8%.

On to `CN1CCN(CCCN2c3ccccc3Sc3ccc(Cl)cc32)CC1` [prochlorperazine], for which the “mode of TryS inhibition” value with TryS is on record as “Spd competitive behaviour”.

In general, thermodynamic solubility refers to the concentration in solution at equilibrium with solid. In general, solubility (kinetic) refers to solubility judged after dilution from a stock solution rather than from solid. What is called EC50 is the concentration at which the effect is half-maximal. A word on the viability: it is a read-out of living cells in per cent, often relative to untreated cells.

(Values after paper PMC10688702, “The indole motif is essential for the antitrypanosomal activity of N^5-substituted paullones” (PLOS ONE, 2023).)
